# Test results: paper PMC6353801, “Enhanced Anti-diabetic Effect of Berberine Combined With Timosaponin B2 in Goto-Kakizaki Rats, Associated With Increased Variety and Exposure of Effective Substances Through Intestinal Absorption” (Frontiers in Pharmacology, 2019)
# Assays:
# [1] = PK in systemic plasma of GK rats after repeated oral administration (day 35); type: in vivo, rat; conditions: GK rats, systemic plasma; for Cmax / half-life / Tmax / AUC: male, GK, rat, po, mean ± SE, n = 8; for Cmax / half-life / Tmax: plasma; for half-life: read-out: T1/2 (converted); for Tmax: read-out: Tmax; for AUC: read-out: AUC
# Experimental: Analyses were performed on a Shimadzu LCMS-8030 triple quadrupole system (Shimadzu Corp., Japan) equipped with an electrospray ionization source. Data processing was performed using Shimadzu LC–MS LabSolutions (version 5.42 SP4, Shimadzu, Japan). Chromatographic separation was carried out on a Waters CORTECS C18+ column (100 mm × 2.1 mm, 2.7 μm, Ireland) with a security guard C18+ column (5 mm × 2.1 mm, 2.7 μm, Ireland). […] The gradient elution was 85% B from 0 to 2.5 min, 85% B–83% B from 2.5 to 3.0 min, 83% B from 3.0 to 6.0 min, 83% B–40% B from 6.0 to 6.5 min, 40% B from 6.5 to 7.0 min, 40% B–85% B from 7.0 to 7.2 min, and 85% B from 7.2 to 12 min. […] The optimized precursor-to-product ion pairs (collision energy) were in the positive mode as follows: m/z 579.20–255.15 (28 V) for TB-2 (at 4.1 min) and timosaponin A3 (at 6.1 min) and 271.50–154.70 (25 V) for tolbutamide (IS, at 5.8 min). […] If the concentrations of the compounds were over the linear range, the relevant samples were diluted with blank matrix by a factor of 10. […] Four-week-old male GK rats were fed a high-fat diet, and age-matched non-diabetic Wistar rats were fed standard chow as the control group. Under these dietary conditions, blood glucose was estimated each week for 7 weeks in 12-h fasted rats using a portable glucometer (One Touch Sure Step Meter, Johnson & Johnson, United States) by drawing the blood from the tail vein. GK rats with fasting blood glucose levels (FBG) above 16.7 mM were considered as diabetic rats, and only uniformly diabetic rats were used in this study. […] All the drugs were suspended in 0.5% carboxymethylcellulose sodium (CMC-Na) solution for oral gavage (10 ml/kg) once per day (at 9:00) for 6 weeks. Simultaneously, the Wistar and vehicle groups received vehicle over the treatment period. Food consumption and body weight were measured every week throughout the experimental periods. Non-fasting blood glucose (NFBG) levels were determined by collecting blood samples from the tail vein (at 9:00), and FBG levels were determined after a 6-h fast (at 15:00) on days 0, 7, 14, 21, and 42. On day 28, an oral glucose tolerance test (OGTT) was performed after an overnight fast. […] On day 42, the rats were anesthetized with urethane (1.4 g/kg, dissolved in saline) after an overnight fast and were sacrificed to collect the liver, kidney, heart, and spleen. The organs were weighed after washing with saline and drying to calculate the organ coefficient, namely, the ratio between the weight of organs and the body in each rat. The liver samples were diluted with 3 volumes (0.5 g/1.5 ml) of saline and homogenized. The liver homogenates and plasma samples (100 μl) were precipitated with three volumes of acetonitrile (containing 10 μg/ml tolbutamide). […] Then, 100 μl of the original mobile phase was added, and the samples were vortexed for 5 min and centrifuged at 13,000 rpm at 4°C for 10 min. Finally, the supernatant was used for HPLC–QQQ–MS/MS analysis. A non-compartmental analysis was performed using WinNonlin software (Pharsight 6.2, Raleigh, NC, United States) to calculate the PK parameters. The significance of PK parameters in normal rats, generated by the sparse method in WinNonlin, was assessed with Welch’s unequal variances t-test. The significance of the other results was assessed using two-tailed Student’s t-tests. Statistical significance was defined as P < 0.05.
# GK rats = experiment: NFBG and FBG levels in GK rats, 6-week oral treatment; type: in vivo, rat; conditions: during 6-week treatment, TB-2 33.3, BBR 66.7, TB-2+BBR 100, metformin 200 mg/kg/day
# Experimental: Four-week-old male GK rats were fed a high-fat diet, and age-matched non-diabetic Wistar rats were fed standard chow as the control group. Under these dietary conditions, blood glucose was estimated each week for 7 weeks in 12-h fasted rats using a portable glucometer (One Touch Sure Step Meter, Johnson & Johnson, United States) by drawing the blood from the tail vein. GK rats with fasting blood glucose levels (FBG) above 16.7 mM were considered as diabetic rats, and only uniformly diabetic rats were used in this study. […] All the drugs were suspended in 0.5% carboxymethylcellulose sodium (CMC-Na) solution for oral gavage (10 ml/kg) once per day (at 9:00) for 6 weeks. Simultaneously, the Wistar and vehicle groups received vehicle over the treatment period. Food consumption and body weight were measured every week throughout the experimental periods. Non-fasting blood glucose (NFBG) levels were determined by collecting blood samples from the tail vein (at 9:00), and FBG levels were determined after a 6-h fast (at 15:00) on days 0, 7, 14, 21, and 42. On day 28, an oral glucose tolerance test (OGTT) was performed after an overnight fast. […] On day 42, the rats were anesthetized with urethane (1.4 g/kg, dissolved in saline) after an overnight fast and were sacrificed to collect the liver, kidney, heart, and spleen. The organs were weighed after washing with saline and drying to calculate the organ coefficient, namely, the ratio between the weight of organs and the body in each rat.
# [2] = PK in portal vein plasma of Wistar rats (before hepatic clearance); conditions: for AUC / Cmax / Tmax / half-life: male, Wistar, rat, po
# [3] = PK in systemic plasma of Wistar rats (after hepatic clearance) and liver extraction ratio; conditions: for ERliver (liver extraction ratio): (AUCpor−AUCsys)/AUCpor; for Tmax: n = 5
# [4] = Liver distribution in Wistar rats; conditions: for AUC ± SE / Cmax / half-life / Tmax: n = 5; for Cmax / half-life / Tmax: male, Wistar, rat, po; for Cmax: Cmax ± SE; for half-life: T1/2, Wistar rats
# [5] = 33.3 mg/kg, day 35, oral BBR+TB-2 (66.7+33.3 mg/kg)
# [6] = 66.7 mg/kg, day 35, oral BBR 66.7 mg/kg alone
# [7] = male, Wistar, rat, systemic plasma, po, 66.7 mg/kg
# [8] = male, Wistar, rat, systemic plasma, po, 100 mg/kg
# [9] = liver, 33.3 mg/kg, Wistar rats, liver, single oral BBR+TB-2 (66.7+33.3 mg/kg)
# [10] = liver, 66.7 mg/kg, Wistar rats, single oral BBR 66.7 mg/kg alone
smiles,measurement,setting,value
"COc1ccc2cc3[n+](cc2c1OC)CCc1cc2c(cc1-3)OCO2 [BBR, berberine]",increase in AUC on combination vs single treatment,[1]; day 35,107%
same,increase in Cmax on combination vs single treatment,[1]; day 35,695%
same,Cmax,[1]; [5],42.2 ± 17.4 ng/mL
same,half-life,[1]; [5],558 ± 150 min
same,Tmax,[1]; [5],0.9 ± 0.1 h
same,Cmax,[1]; [6],5.3 ± 0.4 ng/mL
same,half-life,[1]; [6],1690 ± 702 min
same,Tmax,[1]; [6],4.6 ± 1.5 h
same,AUC,[1]; [5],155 ± 59.7 ng·h/mL
same,AUC,[1]; [6],74.8 ± 3.5 ng·h/mL
same,FBG levels compared with the vehicle group (in words),GK rats,no significant differences
same,NFBG levels compared with the vehicle group (in words),GK rats,no significant differences
same,increase in AUC on co-administration vs single treatment,[2]; Wistar rats,114%
same,AUC,[2]; 66.7 mg/kg,198 ± 22.2 ng·h/mL
same,Cmax,[2]; 66.7 mg/kg,63.1 ± 18.5 ng/mL
same,Tmax,[2]; 66.7 mg/kg,2 h
same,half-life,[2]; 66.7 mg/kg,588 min
same,AUC,[2]; 100 mg/kg,424 ± 60.5 ng·h/mL
same,Cmax,[2]; 100 mg/kg,145 ± 50.3 ng/mL
same,Tmax,[2]; 100 mg/kg,2 h
same,half-life,[2]; 100 mg/kg,630 min
same,ERliver (liver extraction ratio),"[3]; Wistar rats, oral BBR 66.7 mg/kg alone",87.3%
same,ERliver (liver extraction ratio),"[3]; Wistar rats, oral BBR+TB-2 (100 mg/kg)",90.0%
same,"AUC in portal vein plasma, fold higher than in systemic plasma","[3]; Wistar rats, BBR treatments",6.9 fold
same,"AUC in portal vein plasma, fold higher than in systemic plasma","[3]; Wistar rats, TB-2+BBR treatments",9.1 fold
same,"AUC in portal vein plasma, fold higher than in systemic plasma (discussion)","[3]; Wistar rats, single or combination treatments",approximately 10 fold
same,increase in AUC on co-administration vs single treatment,"[3]; Wistar rats, systemic plasma",didn’t increase
same,Tmax,"[3]; Wistar rats, systemic plasma, single oral BBR 66.7 mg/kg alone",12 min
same,Tmax,"[3]; male, Wistar, rat, plasma, po, 66.7 mg/kg, Tmax, Wistar rats, systemic plasma, single oral BBR 66.7 mg/kg alone",10 min
same,AUC,[3]; [7],25.1 ± 4.1 ng·h/mL
same,Cmax,[3]; [7],11.1 ± 3.4 ng/mL
same,half-life,[3]; [7],114 min
same,AUC,[3]; [8],42.1 ± 11.7 ng·h/mL
same,Cmax,[3]; [8],10.8 ± 3.9 ng/mL
same,half-life,[3]; [8],138 min
same,Tmax,"[3]; male, Wistar, rat, systemic plasma, po, 100 mg/kg, Tmax, Wistar rats, systemic plasma, single oral BBR+TB-2 (100 mg/kg)",120 min
same,increase in AUC on co-administration vs single treatment,"[4]; Wistar rats, liver",didn’t elicit statistical significance
same,increase in Cmax on co-administration vs single treatment,"[4]; Wistar rats, liver",136%
same,AUC ± SE,"[4]; Wistar rats, liver, single oral BBR 66.7 mg/kg alone",3255.1 ± 247.5 h ∗ ng/g
same,AUC ± SE,"[4]; Wistar rats, liver, single oral BBR+TB-2 (66.7+33.3 mg/kg)",4600.3 ± 645.1 h ∗ ng/g
same,Cmax,[4]; [9],1880 ± 418 ng/g
same,half-life,"[4]; liver, 33.3 mg/kg, liver, single oral BBR+TB-2 (66.7+33.3 mg/kg)",414 min
same,Tmax,[4]; [9],2 h
same,Cmax,[4]; [10],795 ± 157 ng/g
same,half-life,"[4]; liver, 66.7 mg/kg, single oral BBR 66.7 mg/kg alone",888 min
same,Tmax,[4]; [10],2 h
same,improvement of levels on co-administration,"[4]; normal rats, in the plasma and liver",41–114%
